Patent EP4603105A1, “PHARMACEUTICAL COMPOSITION CONTAINING CYCLIC COMPOUND HAVING SELECTIVE KRAS INHIBITORY EFFECT AGAINST HRAS AND NRAS” (CHUGAI SEIYAKU KABUSHIKI KAISHA, priority 2022, dated 2024)
Where two headings read alike, the source gives them in different places.

Legend:
[1] = tested on: human lung cancer strain NCI-H441; assay: NCI-H441 cell proliferation inhibitory activity (CellTiter-Glo, 4 days); format: cell-based; conditions: read-out: NCl-H441 IC50
Method in brief: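 Proliferation was scored by […] measured after the reagent was added to cultures kept at 37°C in 5% carbon dioxide.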

HRAS wild-type protein = HRAS wild-type protein (Homo sapiens, UniProt P01112); assay: Binding to HRAS by surface plasmon resonance (SPR), KD and KD ratio to KRAS
HRAS wild-type protein, sequence (P01112 whole entry): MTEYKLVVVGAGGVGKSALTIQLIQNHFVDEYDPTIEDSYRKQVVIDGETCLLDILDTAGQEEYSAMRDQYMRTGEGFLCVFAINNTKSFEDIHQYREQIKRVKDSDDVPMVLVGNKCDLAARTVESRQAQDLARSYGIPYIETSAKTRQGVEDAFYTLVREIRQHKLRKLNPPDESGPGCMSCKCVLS
Method in brief: (§1)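 SPR, 30°C: Avi-biotin RAS·GDP captured via Biotin CAPture (~100–300 RU); running buffer HBS pH 7.4, 1 mM DTT, 10 mM MgCl2, 0.01% Tween 20, 10 µM GDP, 4% DMSO. Single-cycle kinetics, 100 µL/min, 75 s injections; 1:1 model → KD.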

[2] = biological target: GDP-bound NRAS wild-type protein (Homo sapiens, UniProt P01111); assay: Binding to NRAS by surface plasmon resonance (SPR), KD and KD ratio to KRAS
GDP-bound NRAS wild-type protein, sequence (P01111 whole entry): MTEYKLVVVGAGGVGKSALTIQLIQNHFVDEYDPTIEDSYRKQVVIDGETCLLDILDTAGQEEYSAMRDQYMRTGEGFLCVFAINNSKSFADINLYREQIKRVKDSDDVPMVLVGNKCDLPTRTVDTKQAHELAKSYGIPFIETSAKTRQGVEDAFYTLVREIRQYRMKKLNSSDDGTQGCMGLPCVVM
Method in brief: as §1

[3] = biological target: GDP-bound KRAS wild-type protein (Homo sapiens, UniProt P01116); assay: Binding to KRAS by surface plasmon resonance (SPR), dissociation constant KD
GDP-bound KRAS wild-type protein, sequence (P01116 1-188 isoform P01116-2): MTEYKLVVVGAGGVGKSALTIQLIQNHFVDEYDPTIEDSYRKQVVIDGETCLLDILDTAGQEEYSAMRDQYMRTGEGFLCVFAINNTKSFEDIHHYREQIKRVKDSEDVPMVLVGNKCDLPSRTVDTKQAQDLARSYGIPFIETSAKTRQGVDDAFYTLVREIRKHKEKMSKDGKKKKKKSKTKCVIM
Method in brief: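 Captured GDP-RAS (~100–300 RU) was exposed to increasing compound concentrations, 75 s per step, in running buffer with 10 µM GDP, 10 mM MgCl2 and 4% DMSO at pH 7.4.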

[4] = ratio of KD for HRAS wild-type protein to KD for KRAS
[5] = ratio of KD for GDP-bound NRAS wild-type protein to KD for KRAS
[6] = 50% proliferation inhibitory concentration, four days
[7] = ratio of KD with respect to HRAS wild-type protein to KD with respect to KRAS
[8] = ratio of KD with respect to GDP-bound NRAS wild-type protein to KD with respect to KRAS
[9] = Single Cycle Kinetics, 1:1 binding model

Structure (SMILES) | IC50 ([1]; NCI-H441 cells, 4 days) [nM] | HRAS /KRAS (HRAS wild-type protein; [4]) | NRAS /KRAS [2, 5] | Kd ([3]; 1:1 binding model) [nM] | Kd ([3]; Single Cycle Kinetics) [nM] | IC50 [1, 6] [nM] | HRAS /KRAS (HRAS wild-type protein; [7]) | NRAS /KRAS [2, 8] | Kd [3, 9] [nM]
CC[C@H](C)[C@@H]1NC(=O)[C@H](COC)N(C)C(=O)C[C@@H](C(=O)N(C)C)N(C)C(=O)[C@H](C2CCCC2)N(C)C(=O)C2(CC(C)(C)C2)NC(=O)[C@@H]2C[C@@H](C)CN2C(=O)[C@H](CCc2ccc(C(F)(F)F)c(OC)c2)NC(=O)CN(C)C(=O)[C@H](Cc2ccc(C)cc2)N2CC/C=C\C[C@@H](C2=O)N(C)C(=O)CN(C)C1=O [PP2387] | 16.5 | A (a compound having 10 or more and less than 20 is denoted as A) | A (a compound having 10 or more and less than 20 is denoted as A) | 0.11 |  |  |  |  | 
CCC[C@H]1C(=O)N[C@@H]([C@@H](C)CC)C(=O)N(C2CC2)CC(=O)N(C)[C@H]2C/C=C\CCN(C2=O)[C@@H](Cc2ccc(C(F)F)cc2)C(=O)N(C)CC(=O)N[C@@H](CCc2cc(F)c(C(F)(F)F)c(F)c2)C(=O)N2C[C@H](OCC)C[C@H]2C(=O)NC2(CC(C)(C)C2)C(=O)N(C)[C@@H](C(CC)CC)C(=O)N(C)[C@H](C(=O)N(C)C)CC(=O)N1C [PP2527] | 31 | A (a compound having 10 or more and less than 20 is denoted as A) | AA (a compound having 20 or more is denoted as AA) | 0.65 |  |  |  |  | 
CCC[C@H]1C(=O)N[C@@H]([C@@H](C)CC)C(=O)N(C2CC2)CC(=O)N(C)[C@H]2C/C=C\CCN(C2=O)[C@@H](Cc2ccc(C)cc2)C(=O)N(C)CC(=O)N[C@@H](CCc2cc(F)c(C(F)(F)F)c(F)c2)C(=O)N2C[C@H](OCC)C[C@H]2C(=O)NC2(CCCC2)C(=O)N(C)[C@@H](C2CCCC2)C(=O)N(C)[C@H](C(=O)N(C)C)CC(=O)N1C [PP3479] | 11.7 | A (a compound having 10 or more and less than 20 is denoted as A) | A (a compound having 10 or more and less than 20 is denoted as A) |  | 0.51 |  |  |  | 
CCC[C@H]1C(=O)N[C@@H]([C@@H](C)CC)C(=O)N2CCC[C@H]2C(=O)N(C)[C@H]2C/C=C\CCN(C2=O)[C@@H](Cc2ccc(C)cc2)C(=O)N(C)CC(=O)N[C@@H](CCc2cc(F)c(C(F)(F)F)c(F)c2)C(=O)N2CC[C@H](OC)[C@H]2C(=O)N(C)C2(CCC2)C(=O)N(C)[C@@H](C2CCCC2)C(=O)N(C)[C@H](C(=O)N(C)C)CC(=O)N1C [PP3286] | 11.4 | A (a compound having 10 or more and less than 20 is denoted as A) | A (a compound having 10 or more and less than 20 is denoted as A) |  | 0.15 |  |  |  | 
CCO[C@@H]1C[C@H]2C(=O)NC3(CCC3)C(=O)N(C)[C@@H](C3CCCC3)C(=O)N(C)[C@H](C(=O)N3CCCCC3)CC(=O)N(C)[C@@H](CC)C(=O)N[C@@H]([C@@H](C)CC)C(=O)N(C)CC(=O)N(C)[C@H]3C/C=C\CCN(C3=O)[C@@H](Cc3ccc(C(F)(F)F)cc3)C(=O)N(C)CC(=O)N[C@@H](CCc3cc(F)c(C(F)(F)F)c(F)c3)C(=O)N2C1 [PP1289] |  |  |  |  |  | 34.7 | A (a compound having 10 or more and less than 20 is denoted as A) | AA (a compound having 20 or more is denoted as AA) | 0.17
CCC[C@H]1C(=O)N[C@@H]([C@@H](C)CC)C(=O)N(C)CC(=O)N(C)[C@H]2C/C=C\CCN(C2=O)[C@@H](Cc2ccc(C(F)(F)F)cc2)C(=O)N(C)CC(=O)N[C@@H](CCc2ccc(C(F)(F)F)c(OC)c2)C(=O)N2CC[C@H](OC)[C@H]2C(=O)N(C)C2(CCC2)C(=O)N(C)[C@@H](C2CCCC2)C(=O)N(C)[C@H](C(=O)N(C)C)CC(=O)N1C [PP3243] | 5.3 | A (a compound having 10 or more and less than 20 is denoted as A) | A (a compound having 10 or more and less than 20 is denoted as A) |  | 0.066 |  |  |  | 
CCC[C@H]1C(=O)N[C@@H](C2CCCC2)C(=O)N(C)CC(=O)N(C)[C@H]2C/C=C\CCN(C2=O)[C@@H](Cc2ccc(C)cc2)C(=O)N(C)CC(=O)N[C@@H](CCc2ccc(C(F)(F)F)c(Cl)c2)C(=O)N2CC3(CC3)C[C@H]2C(=O)NC2(CCC2)C(=O)N(C)[C@@H](C2CCCC2)C(=O)N(C)[C@H](C(=O)N(C)C)CC(=O)N1C [PP3444] | 13.6 | A (a compound having 10 or more and less than 20 is denoted as A) | AA (a compound having 20 or more is denoted as AA) |  | 0.19 |  |  |  | 
CCO[C@@H]1C[C@H]2C(=O)NC3(CCC3)C(=O)N(C)[C@@H](C3CCCC3)C(=O)N(C)[C@H](C(=O)N(C)C)CC(=O)N(C)[C@@H](CC(C)C)C(=O)N[C@@H]([C@@H](C)CC)C(=O)N(C)CC(=O)N(C)[C@H]3C/C=C\CCN(C3=O)[C@@H](Cc3ccc(F)cc3)C(=O)N(C)CC(=O)N[C@@H](CCc3ccc(Cl)c(Cl)c3)C(=O)N2C1 [PP1482] |  |  |  |  |  | 76.4 | B (a compound having 3 or more and less than 10 is denoted as B) | A (a compound having 10 or more and less than 20 is denoted as A) | 0.45
CCOC[C@H]1C(=O)N[C@@H]([C@@H](C)CC)C(=O)N(C)CC(=O)N(C)[C@H]2C/C=C\CCN(C2=O)[C@@H](Cc2ccc(C)cc2)C(=O)N(C)CC(=O)N[C@@H](CCc2ccc(C(F)(F)F)c(Cl)c2)C(=O)N2C[C@H](OCC)C[C@H]2C(=O)NC2(CC(C)(C)C2)C(=O)N(C)[C@@H](C2CCCC2)C(=O)N(C)[C@H](C(=O)N(C)C)CC(=O)N1C [PP2395] | 6.3 | B (a compound having 3 or more and less than 10 is denoted as B) | A (a compound having 10 or more and less than 20 is denoted as A) | 0.072 |  |  |  |  | 
CCC[C@H]1C(=O)N[C@@H]([C@@H](C)CC)C(=O)N2CCC[C@H]2C(=O)N(C)[C@H]2C/C=C\CCN(C2=O)[C@@H](Cc2ccc(C(F)F)cc2)C(=O)N(C)CC(=O)N[C@@H](CCc2ccc(Cl)c(Cl)c2)C(=O)N2C[C@H](OC3CCC3)C[C@H]2C(=O)NC2(CC(C)(C)C2)C(=O)N(C)[C@@H](C(CC)CC)C(=O)N(C)[C@H](C(=O)N(C)C)CC(=O)N1C [PP2646] | 92.6 | A (a compound having 10 or more and less than 20 is denoted as A) | AA (a compound having 20 or more is denoted as AA) | 1.6 |  |  |  |  | 
CCC[C@H]1C(=O)N[C@@H]([C@@H](C)CC)C(=O)N(C)CC(=O)N(C)[C@H]2C/C=C\CCN(C2=O)[C@@H](Cc2ccc(C(F)(F)F)cc2)C(=O)N(C)CC(=O)N[C@@H](CCc2ccc(C(F)(F)F)c(OC)c2)C(=O)N2CC3(CC3)C[C@H]2C(=O)NC2(CCC2)C(=O)N(C)[C@@H](C(CC)CC)C(=O)N(C)[C@H](C(=O)N(C)C)CC(=O)N1C [PP3408] | 12.8 | A (a compound having 10 or more and less than 20 is denoted as A) | AA (a compound having 20 or more is denoted as AA) |  | 0.32 |  |  |  | 
CCC[C@H]1C(=O)N[C@@H]([C@@H](C)CC)C(=O)N2CCC[C@H]2C(=O)N(C)[C@H]2C/C(F)=C\CCN(C2=O)[C@@H](Cc2ccc(C)cc2)C(=O)N(C)CC(=O)N[C@@H](CCc2cc(F)c(C(F)(F)F)c(F)c2)C(=O)N2C[C@H](OCC)C[C@H]2C(=O)N(C)C2(CCC2)C(=O)N(C)[C@@H](C2CCCC2)C(=O)N(C)[C@H](C(=O)N(C)C)CC(=O)N1C [PP3526] | 10.9 | B (a compound having 3 or more and less than 10 is denoted as B) | B (a compound having 3 or more and less than 10 is denoted as B) |  | 0.29 |  |  |  | 
